Data taken from PMC11477218 (International Journal of Molecular Sciences, 2024).
Like-named read-outs stand apart in the source and are kept apart here.

Target: T1, 20S proteasome β5 subunit (Homo sapiens, UniProt P28074)
T1 construct: gene PSMB5; human erythrocyte 20S proteasome (constitutive); with other subunits of the 20S proteasome
T1 sequence (P28074 60-263): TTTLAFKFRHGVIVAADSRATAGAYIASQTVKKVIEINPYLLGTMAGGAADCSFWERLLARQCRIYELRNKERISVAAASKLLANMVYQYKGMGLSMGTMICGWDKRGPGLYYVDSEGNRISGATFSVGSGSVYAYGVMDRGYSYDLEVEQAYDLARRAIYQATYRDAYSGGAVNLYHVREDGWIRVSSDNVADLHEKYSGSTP
Assay: fluorogenic Suc-LLVY-AMC chymotrypsin-like activity assay
Format: biochemical

IC50 (read-out: IC50)	Compound	IC50
12.2 ± 1.8 µM	COc1cc2ccn(C/C=C/C(=O)NCCC(C)C)c(=O)c2cc1OC [AM12]	
	O=c1c(O)c(-c2ccc(O)c(O)c2)oc2cc(O)cc(O)c12 [quercetin]	2.96 ± 0.77 µM
